Assay results published in patent US20230293495A1, “PHARMACEUTICAL FORMULATIONS FOR TREATING DISEASES MEDIATED BY KDM1A” (Imago Biosciences, Inc., priority 2020, published 2023).

Key:
[1] = Excipient compatibility study: binary mixtures of Compound B and excipient in open vials, assay and related substances (RS); type: physicochemical; details: for RS-1 (related substance): in %; for Total related substances: in % (unit assumed)
Experimental: Commonly used excipients for oral solid dosage formulations were evaluated for this study including fillers, binders, disintegrants, glidants, lubricants and organic acid stabilizers.
Briefly, each excipient and API were individually weighed and filled in vials, followed by the addition of glass beads. The samples were closed, vortexed, and refrigerated at 2 to 8° C. prior to initiation of study as the sample preparation was executed over a period of 10 days. All vials were removed from the refrigerator and allowed to equilibrate to room temperature, then opened, and stored at the designated storage conditions at the same t=0.

KDM1A = KDM1A (Homo sapiens, UniProt O60341); experiment: Inhibition of KDM1A; type: biochemical

Row | Structure (SMILES) | % LC (assay) ([1]; 1 week, 50° C./11% RH) [% LC] | RS-1 (related substance) ([1]; 1 week, 50° C./11% RH) | Total related substances ([1]; 1 week, 50° C./11% RH) | % LC (assay) ([1]; 1 week, 50° C./75% RH) [% LC] | Related substance RRT 1.081 ([1]; 1 week, 50° C./75% RH) [%] | RS-1 (related substance) ([1]; 1 week, 50° C./75% RH) | Total related substances ([1]; 1 week, 50° C./75% RH) | % LC (assay) ([1]; 2 weeks, 50° C./11% RH) [% LC] | RS-1 (related substance) ([1]; 2 weeks, 50° C./11% RH) | Total related substances ([1]; 2 weeks, 50° C./11% RH) | % LC (assay) ([1]; 2 weeks, 50° C./75% RH) [% LC] | Related substance RRT 1.081 ([1]; 2 weeks, 50° C./75% RH) [%] | RS-1 (related substance) ([1]; 2 weeks, 50° C./75% RH) | Total related substances ([1]; 2 weeks, 50° C./75% RH) | % LC (assay) ([1]; week 0) [% LC] | Related substance RRT 1.081 ([1]; week 0) [%] | RS-1 (related substance) ([1]; week 0) | Total related substances ([1]; week 0) | Inhibition of KDM1A, in words (KDM1A)
1 | CN1CCN(C(=O)[C@H](CCCN[C@@H]2C[C@H]2c2ccc(F)cc2)NC(=O)c2ccc(-n3ccnn3)cc2)CC1.Cc1ccc(S(=O)(=O)O)cc1 [Compound B, N—((S)-5-((1R,2S)-2-(4-fluorophenyl)cyclopropylamino)-1-(4-methylpiperazin-1-yl)-1-oxopentan-2-yl)-4-(1H-1,2,3-triazol-1-yl)benzamide ditosylate] | 98.824 | 0.1652 | 0.2245 | 102.663 | 0.0649 | 0.1453 | 0.2102 | 100.211 | 0.3516 | 0.4595 | 101.800 | 0.0715 | 0.3545 | 0.4260 | 102.973 | 0.0589 | 0.0935 | 0.1525 | has shown activity for the inhibition of KDM1A
2 | CN1CCN(C(=O)[C@H](CCCN[C@@H]2C[C@H]2c2ccc(F)cc2)NC(=O)c2ccc(-n3ccnn3)cc2)CC1 [Compound A, N—((S)-5-((1R,2S)-2-(4-fluorophenyl)cyclopropylamino)-1-(4-methylpiperazin-1-yl)-1-oxopentan-2-yl)-4-(1H-1,2,3-triazol-1-yl)benzamide] |  |  |  |  |  |  |  |  |  |  |  |  |  |  |  |  |  |  | has shown activity for the inhibition of KDM1A
